Laboratory results reported in patent publication US12570643B2, “3-aryloxy-3-five-membered heteroaryl propylamine compound, and crystal form and use thereof” (Shanghai Leado Pharmatech Co. Ltd., priority 2019, dated 2026).
Counter-ions that a name gives are not always drawn.

Legend:
HepG2 cells = test: Hepatocyte toxicity (CCK-8 cytotoxicity test); assay type: cell-based; conditions: Homo sapiens, 72 hours, read-out: hepatotoxicity (IC50)
Description: (§1) HepG-2 and SH-SY5Y cells were prepared and placed in 10 cm dish and incubated at 37° C., 5% CO2 in a cell incubator; the cells were digested with trypsinize, resuspended and then counted. Based on a system of 100 μl/well, 8000 cells were transferred to a 96-well plate. The cells were incubated in a 37° C., 5% CO2 cell incubator for 24 hours; a gradient concentration system of compound I-1 (prepared in Example 2) was prepared, 2 times diluted, the system was 100 μl/well. The supernatant in the 96-well plate cell culture system on the first day was removed, and a fresh prepared drug concentration system was added to the corresponding culture plate wells culturing cells (set up duplicate wells). […] After completion of the culture, the supernatant was removed from the cell culture system of the 96-well plate, 100 μl of detection solution (medium containing 10% CCK-8) was add to each well, and incubated in a cell incubator at 37° C. and 5% CO2 for 1 hour, then taken it out and measured the absorbance at 450 nm with a microplate reader. Data were processed, cytotoxicity was calculated, and IC50 was calculated by GraphPad Prism. […]
(§2) A (dosing): absorbance of the well having cells, CCK-8 solution and drug solution
(§3) A (blank): absorbance of the well having medium and CCK-8 solution, without cells.
(§4) A (0 dosing): absorbance of the well having cells and CCK-8 solution, without drug solution […]

[1] = system: hot plate induced pain model in rat; test: Hot plate induced pain model in rat; assay type: in vivo, Sprague-Dawley rats; conditions: 30 mg/kg intraperitoneal, hydrochloride used
Description: Male, mature and unmated healthy Sprague-Dawley rats were selected, and the temperature of the cold/hot plate (product model: PE34, US IITC) was adjusted to a constant temperature of 53±0.1° C., and rats with painful response such as foot licking, foot shaking or slight jumping within 5-10 s were screened (abandoned those who evaded and jumped). […] The tested compound was freshly formulated on the day of administration. A 0.9% NaCl normal saline solution was prepared as a vehicle, an appropriate amount of the test compound was added to the required volume of normal saline, and the mixture was fully suspended to prepare the drug at a concentration of 1 mg/ml. […] The latency of thermal pain was measured at 0.5 h, 1 h and 2 h after drug administration. To avoid scalding the animals on the hot plate, the maximum latency was set to 30 s. The analgesic effect of each compound was evaluated using the maximum possible effect (MPE), i.e. MPE %=[(Post drug latency-baseline latency)/(30−baseline latency)]×100. Statistics of MPE % at different time points.

[2] = system: formalin pain model in mice; test: Formalin pain model in mice; assay type: in vivo, C57BL/6 mice; conditions: for licking time (s) in phase II (10-60 min): hydrochloride used, mice, blank Vehicle 349.55 ± 43.09
Description: 150 C57BL/6 mice (male, 9 weeks) were randomly divided into 15 groups with 10 mice for each group, and were used for the analgesic activity test of 3 compounds in the formalin pain model in mice: the compound I-1 group (compound I-1 prepared in Example 2, its hydrochloride was used in the experiment), the S-duloxetine group (its hydrochloride was used in the experiment) and the compound C1 group (compound C1 prepared in Comparative Example 1, its hydrochloride was used in the experiment), respectively. Before the start of the experiment, the mice were allowed to adapt to the experimental environment for 72 hours, during which there was no need to fast for food or water. The tested drugs were administrated by intraperitoneal injection, and the doses were as follows: • The compound I-1 group: blank Vehicle (blank normal saline control), 0.1 mg/kg, 0.5 mg/kg, 1 mg/kg, 5 mg/kg and 10 mg/kg; • The S-duloxetine group: blank Vehicle (blank normal saline control), 1 mg/kg, 5 mg/kg, 10 mg/kg and 20 mg/kg; • The Compound C1 group: blank Vehicle (blank normal saline control), 0.1 mg/kg, 0.5 mg/kg, 1 mg/kg, 5 mg/kg and 10 mg/kg.
After the administration, the mice were placed in a transparent, ventilated plexiglass cylinder, and 1 hour later, 20 μl of 4% formalin solution was injected into the left hind foot plantar of each group of mice with a micro-injector, and foot pain response in mice were recorded in real time with a miniature camera. The length of time of licking the left foot was used as an indicator of pain response, the licking time were observed and recorded during two periods of 0-10 min (phase I) and 10-60 min (phase II) respectively, for statistical analysis, and the half effective dose (ED50) of the 3 compounds were calculated: ED50 refers to the drug dose that reduces the licking time by half compared with the blank control group. The smaller the ED50 value is, the lower the effective analgesic dose of the compound is and the better its analgesic effect is.

[3] = Neurocytotoxicity (CCK-8 cytotoxicity test); assay type: cell-based; conditions: human, SH-SY5Y cells
Description: as §1, §2, §3, §4

[4] = system: acetic acid writhing pain model in mice; test: Acetic acid writhing pain model in mice; assay type: in vivo, ICR mice; conditions: acetic acid 1 hour after administration, normal saline group 49 times
Description: ICR mice, male, 22-25 g, were fasted for food 2 h before administration, but can have water. All ICR mice were weighed and randomly grouped with the number of animals>10 per group. […] The mice were administered via intragastric administration according to the weight of mice. 1.5% acetic acid solution (0.1 ml/10 g) was intraperitoneally injected at 1 hour after administration, and the number of times of visceral pain in each group within 30 minutes was observed, the mice were counted once when the abdomen was concave, the trunk and hind legs were extended and the hips were elevated, and the number of times of these phenomena occurred within 30 min was finally counted.

SNL model in rat = test: SNL model in rat, mechanical hyperalgesia test; assay type: in vivo, SD rats; conditions: 10 mg/kg intragastric, 1 hour after administration, hydrochloride used; control group 3.967 ± 0.775
Description: SD rats were taken for surgery, male, SPF grade, mass 150 g-180 g. The surgical procedure was performed aseptically. The animals were anesthetized with sodium pentobarbital (50 mg/kg, intraperitoneal injection). The surgical area of the waist of animals was shaved, and the skin was disinfected three times with iodophor and 70% ethanol. Start the operation after the skin was dry. A longitudinal incision was made in the posterior part of the sacral bone of the animal's waist with a scalpel to expose the left paravertebral muscles, and the muscle tissue was separated with a distractor to expose the vertebra. The left spinal nerves L5 and L6 were separated, ligated with 6-0 silk thread, and the wounds were sutured. After the surgery, the animals were placed on an electric blanket and injected subcutaneously with 5 mL normal saline to prevent dehydration. When the animal was completely awake (free to move), put the animal back into the cage.
After the surgery, the animals were adapted in the experimental environment for 15 minutes/day for 3 days.
After administration, mechanical hyperalgesia test was performed. The rats were placed individually in a plexiglas box with a grid at the bottom of the box to ensure that the feet of the rats can be tested. Rats would adapt for 15 minutes before the test. […] The rapid paw withdrawal of the animal during the test was recorded as a pain response. The paw withdrawal of the animal when the test fiber left the animal's skin was also recorded as a pain response. If the animal moved or walked, it will not be recorded as a pain response, the test should be repeated. […]
Mechanical hyperalgesia was expressed as the paw withdrawal threshold (PWT) in the behavioral test of rats, which was calculated according to the following equation: 50% response threshold (g)=(10(^Xf+kδ))/10,000 • Xf=the final test fiber value used in the test • K=table value • δ=Average difference
Data were collected using Excel software and analyzed using Prism 6.01 (Graph pad software, Inc.) software.

[5] = Hygroscopicity by dynamic moisture absorption (DVS); assay type: physicochemical; conditions: 25° C./80RH
Description: Hygroscopicity was tested by dynamic moisture absorption (DVS) instrument. […] (Refer to the 2015 edition of the Chinese Pharmacopoeia (Guiding Principles for Drug Hygroscopicity Test)). • (2) Stability study of the crystal form A of the hydrochloride of the compound of formula I-1: […]

[6] = Stability study of crystal form A (HPLC purity, XRPD crystal form); assay type: physicochemical; conditions: initial purity 100
Description: About 10 mg of the crystal form A of the hydrochloride of the compound of formula I-1 was weighed and added into an HPLC vial, the bottle was sealed with a parafilm, 10 small holes were pierced in the film, and the vial was placed at 25° C./60% RH or 40° C./75% RH environment for 4 weeks, sampled in the first and fourth weeks respectively. Purity (using HPLC analysis) and crystal form (using X-ray powder diffraction analysis) of the samples were investigated.

| SMILES | IC50 (HepG2 cells) [µM] | MPE % ([1]; 0.5 h) [%] | MPE % ([1]; 1 h) [%] | MPE % ([1]; 2 h) [%] | licking time (s) in phase II (10-60 min) ([2]; 1 mg/kg intraperitoneal) [s] | licking time (s) in phase II (10-60 min) ([2]; 5 mg/kg intraperitoneal) [s] | licking time (s) in phase II (10-60 min) ([2]; 10 mg/kg intraperitoneal) [s] | licking time (s) in phase II (10-60 min) ([2]; 20 mg/kg intraperitoneal) [s] | ED50 ([2]; Mus musculus, ip, intraperitoneal, phase II (10-60 min), dose that halves licking time vs blank control, read-out: analgesic potency ED50 in phase II pain) [mg/kg] | IC50 at 72 h [3] [µM] | number of visceral pains (writhing reactions) within 30 min ([4]; 10 mg/kg intragastric) [times] | number of visceral pains (writhing reactions) within 30 min ([4]; 20 mg/kg intragastric) [times] | PWT (SNL model in rat) [g] | weight change (hygroscopicity, DVS) [5] | Purity (area %) ([6]; 25° C./60% RH, 1 week) | Purity (area %) ([6]; 25° C./60% RH, 4 weeks) | Purity (area %) ([6]; 40° C./75% RH, 1 week) | Purity (area %) ([6]; 40° C./75% RH, 4 weeks) |
| --- | --- | --- | --- | --- | --- | --- | --- | --- | --- | --- | --- | --- | --- | --- | --- | --- | --- | --- |
| CNCC[C@H](Oc1cccc2ccccc12)c1cccs1 [S-duloxetine] | 33.3 | 5.75 ± 5.74 | 7.44 ± 5.12 | 13.53 ± 4.99 | 259.97 ± 64.44 | 230.49 ± 41.31 | 162.83 ± 36.27 | 72.27 ± 17.29 | 8 | 28.6 | 27 | 21 | 6.519 ± 2.226 | – | – | – | – | – |
| CNCC[C@@H](Oc1cccc2ccoc12)c1cccs1 [Crystal form A of the hydrochloride] | – | – | – | – | – | – | – | – | – | – | – | – | – | less than 0.2% | 100 | 100 | 100 | 100 |
